75 compounds from PubChem BioAssay AID720588 (Broad Institute, 2013) can be followed below.

Structures are written as SMILES. Several values for one entry are separate records, joined by “and”; a condition that tells them apart may be missing. Equal entries are not always repeated. Activity calls are given as the source filed them.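 The calls were made as follows: active = fitted curve falls past a set limit of signal loss at no more than twice the top dose; inconclusive = flat fit between 30 and 70% signal loss, or poor fit; inactive = signal rise, flat within 30%, or crossing too high.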

Test system in the first test: not listed separately
The test can be described thus: HEK293T cell cytotoxicity, dose response, cytotoxicity control, CellTiter-Glo luminescence, cherry-pick, set 3 (AID 720588).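 As to AC35: potency for luminescence loss meaning cytotoxic compounds.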 The settings on record: HEK293T viability, CellTiter-Glo ATP luminescence, 72 h; at 26 µM (top of the series).
As to `COc1cccc(S(=O)(=O)N(C)C[C@H]2OCc3cnnn3CCCC(=O)N([C@@H](C)CO)C[C@H]2C)c1`, the activity change, negative = cytotoxicity was 5% (inactive). The same measure, in the same setting: the figure for `O=C1CCCC2=C1C(c1ccccn1)Nc1ccc(C(=O)c3ccccc3)cc1N2` (stereo not given) is 7.12% (inactive). Still for that read-out and setting: as for `COc1cc2c(cc1OC)C(C)N(C(=O)c1cc(Cl)nc(Cl)c1)CC2` (stereo not given), the figure is -13.4% (inactive); as for `CC1(C(=O)NCc2ccco2)Cc2c(-c3cccc(C(N)=O)c3)ccnc2O1` (stereo not given), -5.89% (inactive); as for `CC(=O)ON=C1C=CC(=C(C#N)c2ccccc2)C=C1`, -28.3% (inactive). Same read-out and setting: the figure for `C=CCn1c(O)c(N=Nc2ccccc2)c2ccccc21` is 11.3% (inactive); for `Cc1ccsc1/C=N/Nc1cccc(C(=O)O)c1` it is -23% (inactive).

The next test deals with HEK293T viability, CellTiter-Glo ATP luminescence, 72 h. Described as above.
Details: not given
For `CCN1/C(=C/C=C/c2oc3ccc(-c4ccccc4)cc3[n+]2CC)Oc2ccc(-c3ccccc3)cc21`, the AC35 is 4.89 µM. As to `N/C(=C\C(=O)c1cc(Cl)ccc1O)C(Cl)(Cl)Cl`, the AC35 is 14.7 µM. The same measure, in the same setting: as for `COC(=O)Cc1[nH]n(-c2nc3ccccc3s2)c(=O)c1C(C)=Nc1ccc(OC)cc1`, the figure is 14 µM; as for `COc1ccc(C=C2CCc3ccccc3C2=O)cc1`, 16.2 µM.

Regarding `Cc1cccc(CN2C(=O)/C(=C\c3ccc(C(=O)NCCCN4CCN(C)CC4)cc3)Oc3ccccc32)c1`, the AC35 was 13.6 µM. Still for that read-out and setting: the figure for `C[C@@H]1CN([C@@H](C)CO)C(=O)c2cccc(NS(=O)(=O)c3ccccc3)c2O[C@@H]1CN(C)Cc1ccc(C(=O)Nc2ccccc2N)cc1` is 2.29 µM; for `CCc1ccc(N2C=C(C(=O)OC)C(c3ccc(OC)cc3)C(C#N)=C2N)cc1` (stereo not given) it is 10.6 µM; for `O=C1Nc2cc(C(=O)NCCN3CCCCCC3)ccc2S/C1=C\c1ccccc1` it is 11.7 µM. In the case of `CN(C)CC1CCC/C(=C\c2ccc(OC(=O)c3ccc(Cl)cc3)cc2)C1=O` (stereo not given), the AC35 was 11.3 µM. Still for that read-out and setting: as for `C[C@@H]1CN([C@H](C)CO)C(=O)c2cccc(N(C)C)c2O[C@@H]1CN(C)Cc1ccc(C(=O)Nc2ccccc2N)cc1`, the figure is 11.7 µM. Take `COc1ccc(-c2ccc3c(c2)[C@H]2[C@H](CCN2S(=O)(=O)c2ccc(OC)cc2)[C@@H](CO)N3C)cc1`: the AC35 was 24.5 µM. On to `C[C@@H]1O[C@@H](O[C@H]2C[C@@H](O)[C@]3(CO)[C@H]4[C@H](O)C[C@]5(C)[C@@H](C6COC(=O)C6)CC[C@]5(O)[C@@H]4CC[C@]3(O)C2)[C@H](O)[C@H](O)[C@H]1O` (stereo not given in full), for which the AC35 was 2.22 µM. In the case of `Nc1nc(=S)c2ncn([C@@H]3O[C@H](CO)[C@@H](O)[C@H]3O)c2[nH]1`, the AC35 is 7.33 µM. The same measure, in the same setting: as for `CCCCCCCCCCCCCCCCn1cc[n+](C)c1`, the figure is 10.5 µM; as for `CC(=NNc1cc(C)c2ccccc2n1)c1ccccn1`, 2 µM.

Regarding `CC12CCC3C(CCC4(O)CC(O)CCC34C=NO)C1(O)CCC2C1=COC(=O)C1` (stereo not given), the AC35 is 0.25 µM. For the compound `CC(=O)Oc1ccc(-c2ccc(C(=O)Nc3cccc(S(=O)(=O)N4CCOCC4)c3)cc2)cc1`, the AC35 is 0.274 µM.

Consider `Cc1cc2c(C(C)C)c(O)c(O)c(C=O)c2c(O)c1-c1c(C)cc2c(C(C)C)c(O)c(O)c(C=O)c2c1O`, for which the AC35 is 9.42 µM. For the compound `Oc1c(C(c2ccc(Cl)cc2)N2CCCC2)cc(Cl)c2cccnc12` (stereo not given), the AC35 is 6.54 µM.

Consider `COC(=O)C1=C(C)N(Cc2cccc(C(F)(F)F)c2)C(=NCc2ccc(OC)cc2)NC1c1cccc(F)c1` (stereo not given), for which the AC35 was 4.96 µM. As to `CC1(C)N=C(N)N=C(N)N1c1ccc(OCCCOc2ccccc2)c(Cl)c1`, the AC35 was 11.1 µM. Regarding `O=C(CCc1ccccc1)NC(c1cccs1)c1cc(Cl)c2cccnc2c1O` (stereo not given), the AC35 is 7.93 µM.

Take `C(=Cc1nc2ccccc2o1)c1ccc2c(c1)OCO2`: the AC35 is 2.47 µM.

In the case of `C[C@H]1O[C@@H](O[C@H]2[C@@H](O)C[C@H](O[C@H]3[C@@H](O)C[C@H](O[C@H]4CC[C@@]5(C)[C@H](CC[C@@H]6[C@@H]5C[C@@H](O)[C@]5(C)[C@@H](C7=CC(=O)OC7)CC[C@]65O)C4)O[C@@H]3C)O[C@@H]2C)C[C@H](O)[C@@H]1O`, the AC35 is 0.0823 µM. Still for that read-out and setting: the figure for `COc1ccc(OC)c(-c2nnc3n2N=C(c2ccc(OC)c(OC4CCOC4)c2)CS3)c1` (stereo not given) is 9.24 µM.

Consider `CC(=NNc1ccc2ccccc2n1)c1ccccn1`, for which the AC35 was 1.12 µM. The same measure, in the same setting: the figure for `O=c1[nH]c(=O)n([C@H]2C[C@H](O)[C@@H](CO)O2)cc1F` is 5.28 µM.

As for `Cc1ccc(C)c(S(=O)(=O)N2CCN(c3ncnc4sccc34)CC2)c1`, the AC35 is 4.95 µM. For `CC(=O)OC1CC(OC2C(O)CC(OC3C(O)CC(OC4CCC5(C)C(CCC6C5CCC5(C)C(C7=CC(=O)OC7)CCC65O)C4)OC3C)OC2C)OC(C)C1OC1OC(CO)C(O)C(O)C1O` (stereo not given), the AC35 is 0.0583 µM. On the same count and under the same terms, the figure for `CO[C@H]1CN(C)C(=O)c2cc(NC(=O)c3ccc(Oc4ccccc4)cc3)ccc2OC[C@H](C)NC[C@@H]1C` is 14.5 µM.

For `C[C@@H]1CN([C@H](C)CO)C(=O)c2cc(N(C)C)ccc2O[C@H]1CN(C)Cc1ccc(C(=O)Nc2ccccc2N)cc1`, the AC35 is 16.5 µM. Still for that read-out and setting: the figure for `C[C@]12CCC3C(CCC4=CC(O)CC[C@@]43/C=N/O)C1(O)CCC2C1=CC(=O)OC1` (stereo not given in full) is 0.694 µM. On the same count and under the same terms, as for `CN(C[C@H]1N[C@@H](CO)[C@@H]1c1ccc(C2=CCCC2)cc1)C(=O)c1ccc(F)cc1`, the figure is 5.64 µM.

`CN(C[C@H]1N[C@@H](CO)[C@@H]1c1ccc(C2=CCCC2)cc1)C(=O)c1cccc(F)c1`: the AC35 was 4.63 µM. Regarding `COc1ccc(/C=C(/C(=O)c2cccs2)N2C=CC=CC2=C(C#N)C#N)cc1`, the AC35 was 6.97 µM. The same measure, in the same setting: the figure for `COc1ccc(S(=O)(=O)N2CC[C@@H]3[C@@H](CO)Nc4ccc(-c5ccc(C#N)cc5)cc4[C@@H]32)cc1` is 16.5 µM. On the same count and under the same terms, the figure for `COc1ccc(NC(=S)N=Nc2c(O)[nH]c3ccccc23)cc1` is 7.54 µM; for `CC(C)N1C/C(=C/c2ccsc2)C(=O)/C(=C/c2ccsc2)C1` it is 7.95 µM.

In the case of `O=C1NC(=O)N(Cc2ccccc2)C(=O)/C1=C\C=C\c1ccco1`, the AC35 was 12.9 µM. Consider `CN(Cc1cnc2nc(N)nc(N)c2n1)c1ccc(C(=O)N[C@@H](CCC(=O)O)C(=O)O)cc1`, for which the AC35 is 0.0442 µM and 0.0275 µM.

`C[C@H]1CN([C@@H](C)CO)C(=O)c2cc(N(C)C)ccc2O[C@H]1CN(C)Cc1ccc(C(=O)Nc2ccccc2N)cc1`: the AC35 is 3.65 µM. Still for that read-out and setting: the figure for `C[C@]12CC[C@H](O)C[C@H]1CC[C@@H]1[C@@H]2C[C@@H](O)[C@]2(C)[C@@H](C3=CC(=O)OC3)CC[C@]12O` is 1.16 µM; for `C[C@@H]1CN([C@@H](C)CO)C(=O)Cc2cc(NC(=O)Nc3ccc(C(F)(F)F)cc3)ccc2O[C@@H]1CN(C)Cc1ccc(C(=O)Nc2ccccc2N)cc1` it is 17.4 µM.

Turning to `C=C(C(=O)c1ccccc1)C(C(=C)C(=O)c1ccccc1)c1ccc(OC)cc1`, the AC35 was 5.68 µM. Turning to `CCc1ccc(/C=C2\SC(=S)N(CCCC(=O)N3CCN(C)CC3)C2=O)cc1`, the AC35 is 17.6 µM. For the compound `Cc1cc2sc3ccc(C#CC4(O)CCCCC4)cc3c(=O)c2cc1C`, the AC35 is 18.4 µM. As to `COc1cc2c(OC(C)=O)c3c(c(-c4ccc5c(c4)OCO5)c2cc1OC)C(=O)OC3`, the AC35 is 0.964 µM.

Take `CC(=O)OC1CC2(O)C3CCC4CC(O)CCC4(C)C3CCC2(C)C1C1=CC(=O)OC1` (stereo not given): the AC35 was 0.262 µM. Still for that read-out and setting: as for `BrC(=C\c1ccccc1)/C=N/n1cnnc1`, the figure is 17.8 µM; as for `C[C@@H]1CN([C@@H](C)CO)C(=O)Cc2cc(N(C)C)ccc2O[C@H]1CN(C)Cc1ccc(C(=O)Nc2ccccc2N)cc1`, 7.46 µM; as for `O=C(O)c1ccc(N/N=C/c2ccc3c(c2)OCO3)cc1`, 7.33 µM. The same measure, in the same setting: the figure for `O=C(NCc1ccc(F)cc1)N1[C@H]2CC[C@@H]1C=C(c1ccc(F)cc1OCc1ccccc1)C2` is 14.4 µM; for `O=C(O)c1ccc(N/N=C/c2ccc3nccnc3c2)cc1` it is 11.9 µM. As to `C=C1C(=O)[C@@]23[C@H](O)C[C@@H]4C(C)(C)CC[C@H](O)[C@@]4(C)[C@@H]2CC[C@@H]1[C@H]3O`, the AC35 is 6.9 µM. On the same count and under the same terms, as for `C=C1C(=O)C=C[C@]2(C)C[C@@H]3OC(=O)[C@](C)(O)[C@H]3C[C@@H]12`, the figure is 8.77 µM; as for `C[C@@H]1O[C@@H](O[C@@H]2C=C3CC[C@@H]4C(CC[C@]5(C)[C@@H](c6ccc(=O)oc6)CC[C@]45O)[C@@]3(C)CC2)[C@H](O)[C@H](O)[C@H]1O` (stereo not given in full), below 0.011 µM; as for `C[C@@H]1CN([C@@H](C)CO)C(=O)c2cc(N(C)C)ccc2O[C@H]1CN(C)Cc1ccc(C(=O)Nc2ccccc2N)cc1`, 24.6 µM.

For the compound `C[C@H]1CN([C@@H](C)CO)C(=O)c2cc(N(C)C)ccc2O[C@@H]1CN(C)Cc1ccc(C(=O)Nc2ccccc2N)cc1`, the AC35 is 24.8 µM. With `C[C@]12CC[C@H](O)C[C@H]1CC[C@@H]1C2CC[C@]2(C)[C@@H](C3=CC(=O)OC3)[C@@H](O)C[C@]12O` (stereo not given in full), the AC35 is 1.86 µM.

With `CCOc1cc(/C=N/Nc2cc(C)nc(-n3nc(C)cc3C)n2)ccc1O`, the AC35 is 4.12 µM. Turning to `C[C@H]1CN([C@@H](C)CO)S(=O)(=O)c2ccc(C#CC(C)(C)O)cc2O[C@@H]1CN(C)Cc1ccc(-c2ccccc2)cc1`, the AC35 is 3.6 µM. Still for that read-out and setting: the figure for `CC(=O)Nc1ccc(S(=O)(=O)Nc2ccc(N3CCCCC3)cc2)cc1` is 22.1 µM; for `C[C@H]1CN([C@@H](C)CO)S(=O)(=O)c2ccc(C#Cc3ccncc3)cc2O[C@@H]1CN(C)S(=O)(=O)c1ccccc1` it is 12.3 µM. On the same count and under the same terms, the figure for `C[C@H](CO)N1C[C@H](C)[C@H](CN(C)Cc2ccc(C(=O)Nc3ccccc3N)cc2)Oc2ccc(NC(=O)C3CC3)cc2CC1=O` is 3.6 µM. The same measure, in the same setting: as for `CCOC(=O)[C@]12Cc3ccc(C)cc3[C@H]1N(C1CCCCC1)C(=O)c1ccccc12`, the figure is 9.24 µM; as for `C=C1C(=O)OC2C1CCC(C)C1C=CC(=O)C12C` (stereo not given), 8.71 µM. On to `C[C@@H]1CN([C@@H](C)CO)C(=O)c2cc(NC(=O)c3ccccc3)ccc2O[C@@H](C)CCCCO[C@H]1CN(C)C(=O)Nc1cccc2ccccc12`, for which the AC35 was 0.637 µM. As for `C[C@@H]1CN([C@@H](C)CO)C(=O)c2cc(NS(=O)(=O)c3ccc(Cl)cc3)ccc2O[C@@H]1CN(C)Cc1ccc(C(=O)Nc2ccccc2N)cc1`, the AC35 is 9.95 µM.
